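Interpolation was linear, between the two tested concentrations surrounding the appropriate level; five concentrations were tested over 48 hours in 96-well plates. GI50 is the concentration that inhibits growth by half.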 The source made the active and inactive calls. Rule as the data show it: active = GI50 up to about 1.1 µM and inactive = higher.
What was measured:
Test in all cases: NCI anticancer screen, dose series, 48 h
786-0 = system: 786-0
A498 = system: A498
A549 = system: A549
HOP-62 = system: HOP-62
Hs-578T = system: Hs-578T
KM12 = system: KM12
MCF7 = system: MCF7
MDA-MB-231 = system: MDA-MB-231
NCI-H226 = system: NCI-H226
NCI-H460 = system: NCI-H460
OVCAR-5 = system: OVCAR-5
RXF 393 = system: RXF 393
SK-MEL-5 = system: SK-MEL-5
SN12C = system: SN12C
SNB-75 = system: SNB-75
SR = system: SR
UACC-257 = system: UACC-257
LOX IMVI = system: LOX IMVI
U-251 = system: U-251
Malme-3M = system: Malme-3M

Measured: GI50

CCOC(=O)c1c(NC(=O)c2cccs2)sc2c1CCC2
inactive: 786-0 > 100 µM | A498 > 100 µM | A549 > 100 µM | HOP-62 > 100 µM | Hs-578T > 100 µM | KM12 > 100 µM | MCF7 > 100 µM | MDA-MB-231 > 100 µM | NCI-H226 > 100 µM | NCI-H460 > 100 µM | OVCAR-5 > 100 µM | RXF 393 > 100 µM | SK-MEL-5 > 100 µM | SN12C > 100 µM | SNB-75 1.22 µM | SR 73.3 µM | UACC-257 > 100 µM

C[C@@H]1CC[C@H]2C(C)(C)[C@H]3C[C@@]12CC[C@@]3(C)O [CEDROL]
inactive: 786-0 34.3 µM | A498 > 100 µM | A549 42.7 µM | HOP-62 > 100 µM | Hs-578T > 100 µM | KM12 48.1 µM | LOX IMVI > 100 µM | MCF7 > 100 µM | MDA-MB-231 > 100 µM | NCI-H226 77.1 µM | NCI-H460 18.2 µM | OVCAR-5 > 100 µM | SK-MEL-5 42.7 µM | SN12C 26.7 µM | SNB-75 > 100 µM | SR 18.7 µM | U-251 > 10 µM | UACC-257 > 100 µM

N#CSC#CCCC#CSC#N
inactive: 786-0 20.3 µM | A498 20 µM | A549 19.6 µM | HOP-62 19.3 µM | Hs-578T 23.5 µM | KM12 17.7 µM | LOX IMVI 18.7 µM | MCF7 20.7 µM | MDA-MB-231 17.7 µM | Malme-3M 17.9 µM | NCI-H226 25.1 µM | NCI-H460 22.2 µM | OVCAR-5 20.6 µM | RXF 393 18.9 µM | SK-MEL-5 18.2 µM | SN12C 17.7 µM | SR 7.21 µM | U-251 16.9 µM | UACC-257 16.9 µM

Cc1cc(C)c(S(=O)(=O)N[C@@H](/C=C(\Br)CO)C(C)C)c(C)c1
inactive: 786-0 30.5 µM | A498 20.7 µM | A549 30.8 µM | HOP-62 56.5 µM | Hs-578T 22.5 µM | KM12 33.6 µM | LOX IMVI 18.7 µM | MCF7 19.6 µM | MDA-MB-231 23.6 µM | Malme-3M 21.5 µM | NCI-H460 27.7 µM | OVCAR-5 34.3 µM | RXF 393 23.4 µM | SK-MEL-5 15.8 µM | SN12C 16.8 µM | SNB-75 45 µM | SR 25.1 µM | U-251 25.4 µM | UACC-257 21.5 µM

COC(=O)/C=C/c1cc(OC)c2oc(-c3ccc(OC)c(OC)c3)c(C(=O)OC)c2c1
inactive: 786-0 > 100 µM | A498 > 100 µM | A549 > 100 µM | Hs-578T > 100 µM | KM12 > 100 µM | LOX IMVI > 100 µM | MCF7 > 100 µM | MDA-MB-231 > 100 µM | Malme-3M > 100 µM | NCI-H460 > 100 µM | OVCAR-5 > 100 µM | SK-MEL-5 > 100 µM | SN12C > 100 µM | SR > 100 µM | U-251 > 100 µM | UACC-257 > 100 µM

C=CCN1C(=O)/C(=C/c2ccccc2)N=C1SC1OC(COC(C)=O)C(OC(C)=O)C(OC(C)=O)C1OC(C)=O (configuration not stated)
inactive: 786-0 23.9 µM | A498 38.1 µM | A549 34 µM | HOP-62 37.8 µM | Hs-578T 25.5 µM | KM12 39.9 µM | LOX IMVI 27.2 µM | MCF7 28.5 µM | MDA-MB-231 18.6 µM | Malme-3M 19.5 µM | NCI-H460 42.8 µM | OVCAR-5 26 µM | RXF 393 13.1 µM | SN12C 24.2 µM | SNB-75 21.9 µM | SR 4.86 µM | U-251 19.2 µM | UACC-257 27.9 µM

CN(C)c1ccc(/C=C(\NC(=O)c2ccccc2)C(=O)NC(CC(=O)O)C(=O)O)cc1 (configuration not stated)
inactive: 786-0 41.9 µM | A498 > 100 µM | A549 > 100 µM | HOP-62 22.9 µM | Hs-578T 49.7 µM | KM12 39.4 µM | LOX IMVI 86.3 µM | MCF7 > 100 µM | MDA-MB-231 > 100 µM | NCI-H226 > 100 µM | NCI-H460 65.9 µM | OVCAR-5 > 100 µM | RXF 393 > 100 µM | SK-MEL-5 94.6 µM | SN12C > 100 µM | SNB-75 1.99 µM | SR 75 µM | U-251 > 100 µM | UACC-257 > 100 µM

FC(F)(F)c1ccc(/N=C/C=C(/Nc2ccc(C(F)(F)F)cc2)c2ccc(Cl)cc2)cc1
inactive: 786-0 15.5 µM | A549 12.5 µM | HOP-62 18.2 µM | Hs-578T 13 µM | KM12 4.71 µM | LOX IMVI 1.64 µM | MCF7 17.5 µM | MDA-MB-231 14.5 µM | Malme-3M 19.4 µM | NCI-H226 4.53 µM | NCI-H460 4.38 µM | OVCAR-5 17.9 µM | RXF 393 10.1 µM | SK-MEL-5 6.56 µM | SN12C 10.4 µM | SNB-75 17.6 µM | SR 3.47 µM | U-251 11.3 µM | UACC-257 16.4 µM

O=C1Nc2ccccc2/C1=C/c1ccccc1
inactive: 786-0 13.8 µM | A498 13.5 µM | A549 25.2 µM | HOP-62 18 µM | Hs-578T 24.1 µM | KM12 15.3 µM | LOX IMVI 13.2 µM | MCF7 3.36 µM | MDA-MB-231 17.8 µM | NCI-H226 17.1 µM | NCI-H460 15.5 µM | OVCAR-5 18.5 µM | RXF 393 9.27 µM | SK-MEL-5 13.3 µM | SN12C 14.1 µM | SNB-75 12.9 µM | SR 14.4 µM | U-251 15 µM | UACC-257 15 µM

CCCCCC/C=C\CCCCCCCCCc1cccc(O)c1C(=O)O [GINKGOLIC ACID 17:1]
inactive: 786-0 > 100 µM | A498 > 100 µM | A549 > 100 µM | HOP-62 > 100 µM | Hs-578T > 100 µM | KM12 > 100 µM | MCF7 > 100 µM | MDA-MB-231 > 100 µM | Malme-3M > 100 µM | NCI-H226 60.7 µM | NCI-H460 > 100 µM | OVCAR-5 > 100 µM | RXF 393 > 100 µM | SK-MEL-5 35.5 µM | SN12C > 100 µM | SNB-75 > 100 µM | SR 45.4 µM | U-251 > 100 µM | UACC-257 > 100 µM

O=C1CC(=O)NC(NN2C(=O)CSC2c2ccc(Cl)c(Cl)c2)=N1 (configuration not stated)
inactive: 786-0 > 100 µM | A498 > 100 µM | A549 > 100 µM | HOP-62 > 100 µM | Hs-578T > 100 µM | KM12 42.7 µM | MCF7 > 100 µM | MDA-MB-231 > 100 µM | Malme-3M > 100 µM | NCI-H226 > 100 µM | NCI-H460 > 100 µM | OVCAR-5 > 100 µM | RXF 393 > 100 µM | SK-MEL-5 > 100 µM | SN12C > 100 µM | SNB-75 75 µM | SR 43.8 µM | U-251 > 100 µM | UACC-257 > 100 µM
